In patent US12673961B2 (Agios Pharmaceuticals, Inc., priority 2022, dated 2026):

molecular target: T1, human PAH with the R408W mutation (Homo sapiens, UniProt P00439, R408W); test: Cell Based Phenylalanine Flux Assay; conditions: A375 cells expressing human R408W PAH; 24 hrs compound incubation; 13C-Tyrosine by LC-MS; average where tested multiple times; read-out: AC50;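 further: Ten-point dose curve from 2-fold serial dilutions, run in duplicate at 0.5% DMSO final, tracer step used 20 µM sepiapterin and 800 µM labeled phenylalanine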
T1 construct: expressed in transfected cells
T1 sequence (P00439 1-452 R408W): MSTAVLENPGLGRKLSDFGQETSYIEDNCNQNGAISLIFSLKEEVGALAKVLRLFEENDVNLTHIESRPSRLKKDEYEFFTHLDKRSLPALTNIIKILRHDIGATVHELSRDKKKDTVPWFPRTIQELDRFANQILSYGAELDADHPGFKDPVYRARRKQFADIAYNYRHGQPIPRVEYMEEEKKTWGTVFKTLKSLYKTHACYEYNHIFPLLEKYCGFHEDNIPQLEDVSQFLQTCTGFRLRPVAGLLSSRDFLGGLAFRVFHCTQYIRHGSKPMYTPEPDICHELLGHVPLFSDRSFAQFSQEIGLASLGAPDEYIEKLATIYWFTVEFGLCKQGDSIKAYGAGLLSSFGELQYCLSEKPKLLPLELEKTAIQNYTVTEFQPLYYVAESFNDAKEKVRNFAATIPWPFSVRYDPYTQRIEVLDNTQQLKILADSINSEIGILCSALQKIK

Row | SMILES | AC50
1 | Cc1ncccc1-c1nnc(C(=O)N2CCc3[nH]cnc3[C@@H]2c2cc3c(F)cccn3n2)o1 [Example 1329, (R)-(4-(4-fluoropyrazolo [1,5-a]pyridin-2-yl)-6,7-dihydro-1H-imidazo[4,5-c]pyridin-5(4H)-yl)(5-(2-methylpyridin-3-yl)-1,3,4-oxadiazol-2-yl)methanone] | > 5000 nM
2 | O=C(c1nnc(-c2cnccn2)o1)N1CCc2[nH]cnc2[C@H]1c1cc2c(Cl)cccn2n1 [Example 1332, (S)-(4-(4-chloropyrazolo [1,5-a]pyridin-2-yl)-6,7-dihydro-1H-imidazo[4,5-c]pyridin-5(4H)-yl)(5-(pyrazin-2-yl)-1,3,4-oxadiazol-2-yl)methanone] | < 500 nM
3 | O=C(c1nnc(-c2cnccn2)o1)N1CCc2[nH]cnc2[C@@H]1c1cc2c(Cl)cccn2n1 [Example 1333, (R)-(4-(4-chloropyrazolo [1,5-a]pyridin-2-yl)-6,7-dihydro-1H-imidazo[4,5-c]pyridin-5(4H)-yl)(5-(pyrazin-2-yl)-1,3,4-oxadiazol-2-yl)methanone] | 1000 to 5000 nM
4 | O=C(c1nnc(-c2cccnc2)o1)N1CCc2[nH]cnc2[C@H]1c1cc2cccc(C(F)(F)F)n2n1 [Example 1340, (S)-(5-(pyridin-3-yl)-1,3,4-oxadiazol-2-yl)(4-(7-(trifluoromethyl)pyrazolo [1,5-a]pyridin-2-yl)-6,7-dihydro-1H-imidazo[4,5-c]pyridin-5(4H)-yl)methanone] | 500 to 1000 nM
5 | O=C(c1nnc(-c2cccnc2)o1)N1CCc2[nH]cnc2[C@@H]1c1cc2cccc(C(F)(F)F)n2n1 [Example 1341, (R)-(5-(pyridin-3-yl)-1,3,4-oxadiazol-2-yl)(4-(7-(trifluoromethyl)pyrazolo [1,5-a]pyridin-2-yl)-6,7-dihydro-1H-imidazo[4,5-c]pyridin-5(4H)-yl)methanone] | 1000 to 5000 nM
6 | O=C(c1nnc(-c2cccnc2)o1)N1CCc2[nH]cnc2[C@H]1c1cc2ccccn2n1 [Example 1346, (S)-(4-(pyrazolo[1,5-a]pyridin-2-yl)-6,7-dihydro-1H-imidazo[4,5-c]pyridin-5(4H)-yl)(5-(pyridin-3-yl)-1,3,4-oxadiazol-2-yl)methanone] | 500 to 1000 nM
7 | Cc1c(-c2nnc(C(=O)N3CCc4[nH]cnc4[C@@H]3c3cc4c(C(F)F)cccn4n3)o2)cnn1C [Example 1349] | > 5000 nM
8 | CC(C)(F)c1nnc(C(=O)N2CCc3[nH]cnc3[C@H]2c2cc3c(C(F)F)cccn3n2)o1 [Example 1350, (S)-(4-(4-(difluoromethyl)pyrazolo[1,5-a]pyridin-2-yl)-6,7-dihydro-1H-imidazo [4,5-c]pyridin-5(4H)-yl)(5-(2-fluoropropan-2-yl)-1,3,4-oxadiazol-2-yl)methanone] | < 500 nM
9 | Cn1ccc(-c2nnc(C(=O)N3CCc4[nH]cnc4[C@@H]3c3cc4c(C(F)F)cccn4n3)o2)n1 [Example 1353, (R)-(4-(4-(difluoromethyl)pyrazolo[1,5-a]pyridin-2-yl)-6,7-dihydro-1H-imidazo [4,5-c]pyridin-5(4H)-yl)(5-(1-methyl-1H-pyrazol-3-yl)-1,3,4-oxadiazol-2-yl)methanone] | > 5000 nM
10 | Cc1ncccc1-c1nnc(C(=O)N2CCc3[nH]cnc3[C@H]2c2cc3c(Cl)cccn3n2)o1 [Example 1356, (S)-(4-(4-chloropyrazolo [1,5-a]pyridin-2-yl)-6,7-dihydro-1H-imidazo[4,5-c]pyridin-5(4H)-yl)(5-(2-methylpyridin-3-yl)-1,3,4-oxadiazol-2-yl)methanone] | < 500 nM
11 | Cc1ncccc1-c1nnc(C(=O)N2CCc3[nH]cnc3[C@@H]2c2cc3c(Cl)cccn3n2)o1 [Example 1357, (R)-(4-(4-chloropyrazolo [1,5-a]pyridin-2-yl)-6,7-dihydro-1H-imidazo[4,5-c]pyridin-5(4H)-yl)(5-(2-methylpyridin-3-yl)-1,3,4-oxadiazol-2-yl)methanone] | > 5000 nM
12 | O=C(c1nnc(-c2cnccn2)o1)N1CCc2[nH]cnc2[C@H]1c1cc2cccc(C(F)(F)F)n2n1 [Example 1361, (S)-(5-(pyrazin-2-yl)-1,3,4-oxadiazol-2-yl)(4-(7-(trifluoromethyl)pyrazolo [1,5-a]pyridin-2-yl)-6,7-dihydro-1H-imidazo[4,5-c]pyridin-5(4H)-yl)methanone] | 500 to 1000 nM
13 | O=C(c1nnc(-c2cnccn2)o1)N1CCc2[nH]cnc2[C@H]1c1cc2ccccn2n1 [Example 1362, (S)-(5-(pyrazin-2-yl)-1,3,4-oxadiazol-2-yl)(4-(pyrazolo[1,5-a]pyridin-2-yl)-6,7-dihydro-1H-imidazo[4,5-c]pyridin-5(4H)-yl)methanone] | 500 to 1000 nM
14 | Cc1ncccc1-c1nnc(C(=O)N2CCc3[nH]cnc3[C@H]2c2cc3ccccn3n2)o1 [Example 1364] | < 500 nM
15 | Cc1ncccc1-c1nnc(C(=O)N2CCc3[nH]cnc3[C@@H]2c2cc3ccccn3n2)o1 [Example 1365, (R)-(5-(2-methylpyridin-3-yl)-1,3,4-oxadiazol-2-yl)(4-(pyrazolo[1,5-a]pyridin-2-yl)-6,7-dihydro-1H-imidazo[4,5-c]pyridin-5(4H)-yl)methanone] | > 5000 nM
16 | Cc1c(-c2nnc(C(=O)N3CCc4[nH]cnc4[C@@H]3c3cc4cccc(C(F)F)n4n3)o2)cnn1C [Example 1367, (R)-(4-(7-(difluoromethyl)pyrazolo[1,5-a]pyridin-2-yl)-6,7-dihydro-1H-imidazo[4,5-c]pyridin-5(4H)-yl)(5-(1,5-dimethyl-1H-pyrazol-4-yl)-1,3,4-oxadiazol-2-yl)methanone] | 1000 to 5000 nM
17 | Cn1nc(C(F)F)cc1C(=O)N1CCc2[nH]cnc2[C@H]1c1cc2c(Cl)cccn2n1 [Example 1368, (S)-(4-(4-chloropyrazolo [1,5-a]pyridin-2-yl)-6,7-dihydro-1H-imidazo[4,5-c]pyridin-5(4H)-yl)(3-(difluoromethyl)-1-methyl-1H-pyrazol-5-yl)methanone] | < 500 nM
18 | Cn1nc(C(F)F)cc1C(=O)N1CCc2[nH]cnc2[C@H]1c1cc2c(C(F)F)cccn2n1 [Example 1372, (S)-(3-(difluoromethyl)-1-methyl-1H-pyrazol-5-yl)(4-(4-(difluoromethyl)pyrazolo [1,5-a]pyridin-2-yl)-6,7-dihydro-1H-imidazo[4,5-c]pyridin-5(4H)-yl)methanone] | < 500 nM
19 | Cn1nc(C(F)F)cc1C(=O)N1CCc2[nH]cnc2[C@@H]1c1cc2c(C(F)F)cccn2n1 [Example 1373, (R)-(3-(difluoromethyl)-1-methyl-1H-pyrazol-5-yl)(4-(4-(difluoromethyl)pyrazolo [1,5-a]pyridin-2-yl)-6,7-dihydro-1H-imidazo[4,5-c]pyridin-5(4H)-yl)methanone] | 1000 to 5000 nM
20 | O=C(c1nnc(-c2ccn(C(F)F)n2)o1)N1CCc2[nH]cnc2[C@@H]1c1cc2c(C(F)F)cccn2n1 [Example 1376, (R)-(5-(1-(difluoromethyl)-1H-pyrazol-3-yl)-1,3,4-oxadiazol-2-yl)(4-(4-(difluoromethyl)pyrazolo[1,5-a]pyridin-2-yl)-6,7-dihydro-1H-imidazo[4,5-c]pyridin-5(4H)-yl)methanone] | > 5000 nM
21 | Cc1cccc(-c2nnc(C(=O)N3CCc4[nH]cnc4[C@H]3c3cc4ccccn4n3)o2)n1 [Example 1382, (S)-(5-(6-methylpyridin-2-yl)-1,3,4-oxadiazol-2-yl)(4-(pyrazolo[1,5-a]pyridin-2-yl)-6,7-dihydro-1H-imidazo[4,5-c]pyridin-5(4H)-yl)methanone] | < 500 nM
22 | Cn1nc(C(F)F)cc1C(=O)N1CCc2[nH]cnc2[C@H]1c1cc2cccc(C(F)(F)F)n2n1 [Example 1386, (S)-(3-(difluoromethyl)-1-methyl-1H-pyrazol-5-yl)(4-(7-(trifluoromethyl)pyrazolo [1,5-a]pyridin-2-yl)-6,7-dihydro-1H-imidazo[4,5-c]pyridin-5(4H)-yl)methanone] | 500 to 1000 nM

same assay, conditions: A375 cells expressing human R408W PAH; 24 hrs with compound, then sepiapterin and 13C9,15N-Phenylalanine for 4 hours; 13C-Tyrosine by LC-MS; average where tested multiple times; read-out: AC50

Row | SMILES | AC50
23 | Cc1cccc(-c2nnc(C(=O)N3CCc4[nH]cnc4[C@H]3c3cc4cccc(C)n4n3)o2)n1 [Example 1398, (S)-(4-(7-methylpyrazolo [1,5-a]pyridin-2-yl)-6,7-dihydro-1H-imidazo[4,5-c]pyridin-5(4H)-yl)(5-(6-methylpyridin-2-yl)-1,3,4-oxadiazol-2-yl)methanone] | < 500 nM
24 | Cn1cc(-c2nnc(C(=O)N3CCc4[nH]cnc4[C@H]3c3cc4cccc(C(F)F)n4n3)o2)cn1 [Example 1406, (S)-(4-(7-(difluoromethyl)pyrazolo[1,5-a]pyridin-2-yl)-6,7-dihydro-1H-imidazo [4,5-c]pyridin-5(4H)-yl)(5-(1-methyl-1H-pyrazol-4-yl)-1,3,4-oxadiazol-2-yl)methanone] | < 500 nM
25 | O=C(c1nnc(-c2cnccn2)o1)N1CCc2[nH]cnc2[C@H]1c1cc2c(C(F)F)cccn2n1 [Example 1414, (S)-(4-(4-(difluoromethyl)pyrazolo[1,5-a]pyridin-2-yl)-6,7-dihydro-1H-imidazo [4,5-c]pyridin-5(4H)-yl)(5-(pyrazin-2-yl)-1,3,4-oxadiazol-2-yl)methanone] | < 500 nM
26 | O=C(c1nnc(-c2cnccn2)o1)N1CCc2[nH]cnc2[C@@H]1c1cc2c(C(F)F)cccn2n1 [Example 1415, (R)-(4-(4-(difluoromethyl)pyrazolo[1,5-a]pyridin-2-yl)-6,7-dihydro-1H-imidazo [4,5-c]pyridin-5(4H)-yl)(5-(pyrazin-2-yl)-1,3,4-oxadiazol-2-yl)methanone] | 1000 to 5000 nM
